We go through 29 compounds from patent publication US9914730B2, “Azaquinazoline inhibitors of Atypical protein Kinase C” (Ignyta, Inc., priority 2012, dated 2018).

As usually defined, the IC50 is the point on the concentration scale where inhibition reaches its midpoint.

The experiment concerns the target T1, full-length human PKCι (Homo sapiens, UniProt P41743).
T1 construct: Recombinant, full-length human PKCι expressed in Sf21 insect cells is also commercially available; purchased; host or cells: Sf21 insect cells
T1 sequence (P41743 1-596): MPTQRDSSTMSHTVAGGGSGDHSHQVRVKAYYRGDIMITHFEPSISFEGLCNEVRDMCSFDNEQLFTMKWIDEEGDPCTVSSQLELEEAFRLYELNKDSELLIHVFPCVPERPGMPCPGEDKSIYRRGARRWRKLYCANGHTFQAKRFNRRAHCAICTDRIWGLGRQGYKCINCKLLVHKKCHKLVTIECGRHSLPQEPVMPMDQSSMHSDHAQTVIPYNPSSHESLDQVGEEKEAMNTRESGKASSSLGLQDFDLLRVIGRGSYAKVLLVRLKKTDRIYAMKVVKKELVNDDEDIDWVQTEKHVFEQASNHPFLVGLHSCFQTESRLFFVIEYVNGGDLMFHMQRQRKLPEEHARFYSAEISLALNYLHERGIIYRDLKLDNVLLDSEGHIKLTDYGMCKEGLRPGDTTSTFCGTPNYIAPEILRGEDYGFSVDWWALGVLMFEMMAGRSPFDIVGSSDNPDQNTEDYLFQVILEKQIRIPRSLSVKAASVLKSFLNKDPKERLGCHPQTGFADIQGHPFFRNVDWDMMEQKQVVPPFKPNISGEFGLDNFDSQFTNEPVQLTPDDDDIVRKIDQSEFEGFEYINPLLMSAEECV
As to the kind of experiment: PKCι IC50 IMAP assay, full-length PKCι at 150 μM ATP. Format: biochemical. The note with it: read-out: IC50 in IMAP assay against full length PKCi at 150 μM ATP. In outline: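 IMAP fluorescence polarisation (ex 485/em 530 nm) read-out; % inhibition set from no-compound (0%) and no-enzyme (100%) controls, IC50 from dose-response curve fit. Sf21-expressed full-length enzyme ~15 pM, 100 nM FAM peptide, ATP 150 μM (5× KM^APP), 60 min at RT.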

Structures can show the parent of a compound that is named as a salt.

Turning to `CN1CCN(c2cccc(Nc3cc(-c4nc(N5CC[C@H](CO)C5)c5c(C6CC6)cncc5n4)ccn3)c2)CC1` [Example 722, [(S)-1-(5-Cyclopropyl-2-{2-[3-(4-methyl-piperazin-1-yl)-phenylamino]-pyridin-4-yl}-pyrido[3,4-d]pyrimidin-4-yl)-pyrrolidin-3-yl]-methanol], the IC50 was < 100 nM.

Regarding `CN1CCN(c2cccc(Nc3cc(-c4nc(N5CCC(O)(O)C(F)(F)C5)c5c(C6CC6)cncc5n4)ccn3)c2)CC1` [Example 747, 1-(5-Cyclopropyl-2-{2-[3-(4-methyl-piperazin-1-yl)-phenylamino]-pyridin-4-yl}-pyrido[3,4-d]pyrimidin-4-yl)-3,3-difluoro-piperidine-4,4-diol], the half-maximal inhibitory concentration (IC50) is < 100 nM.

As for `C[C@@H](Nc1cc(-c2nc(N3CCNCC3)c3c(C4CC4)cncc3n2)ccn1)c1cccc2ccccc12` [Example 2165, [4-(5-Cyclopropyl-4-piperazin-1-yl-pyrido[3,4-d]pyrimidin-2-yl)-pyridin-2-yl]-((R)-1-naphthalen-1-yl-ethyl)-amine], the IC50 was < 100 nM.

Take “N-[(2S)-2-amino- 3-phenylpropyl]- 8-(furan-3-yl)-2- (pyridin-4-yl)- pyrido[3,4-d]- pyrimidin-4- amine [Example 113]”: the half-inhibitory concentration (IC50) lay within 100 to 1000 nM.

Consider `COc1cncc2nc(-c3ccncc3)nc(N3CCNC(CC#N)C3)c12` (centres unmarked) [Example 58, 2-{4-[5-methoxy-2-(pyridin-4-yl)-pyrido[3,4-d]-pyrimidin-4-yl]-piperazin-2-yl]-acetonitrile], for which the IC50 fell in the range of 100 to 1000 nM. The same measure for `CN(c1nc(-c2ccnc(Nc3ncc(F)cc3F)c2)nc2c(Cl)ncc(C3CC3)c12)C1CCNCC1` [Example 2170, {8-Chloro-5-cyclopropyl-2-[2-(3,5-difluoro-pyridin-2-ylamino)-pyridin-4-yl]-pyrido[3,4-d]pyrimidin-4-yl}-methyl-piperidin-4-yl-amine]: < 100 nM; for `COc1cncc2nc(-c3ccnc(Nc4ccc(C#N)nc4)c3)nc(N3CCNCC3)c12` [Example 384]: 100 to 1000 nM; for `Nc1ccc(C(=O)Nc2cc(-c3nc(N[C@@H]4CCNC4)c4ccncc4n3)ccn2)cc1` [Example 305, 4-Amino-N-{4-[4-((R)-pyrrolidin-3-ylamino)-pyrido[3,4-d]pyrimidin-2-yl]-pyridin-2-yl}-benzamide]: 100 to 1000 nM. The same measure for `C[C@@H]1CN(c2nc(-c3ccnc(Nc4nc(F)cc(F)c4F)c3)nc3cncc(C4CC4)c23)C[C@H](C)N1` [Example 2037, {4-[5-Cyclopropyl-4-((cis)-3,5-dimethyl-piperazin-1-yl)-pyrido[3,4-d]pyrimidin-2-yl]-pyridin-2-yl}-(3,4,6-trifluoro-pyridin-2-yl)-amine]: < 100 nM; for `OC1CCN(c2nc(-c3ccnc4[nH]c5ccccc5c34)nc3cncc(C4CC4)c23)CC1` [Example 1254, 1-[5-cyclopropyl-2-(9H-pyrido[2,3-b]indol-4-yl)-pyrido[3,4-d]pyrimidin-4-yl]-piperidin-4-ol trifluoroacetic acid salt]: 100 to 1000 nM; for `Fc1cccc(F)c1Nc1cc(-c2nc(N3CCNCC3)c3c(C4CCC4)cncc3n2)ccn1` [Example 620, [4-(5-Cyclobutyl-4-piperazin-1-yl-pyrido[3,4-d]pyrimidin-2-yl)-pyridin-2-yl]-(2,6-difluoro-phenyl)-amine]: < 100 nM.

`Clc1cc2c(N3CCNCC3)nc(-c3ccncc3)nc2cn1` [Example 13, 1-[6-chloro-2-(pyridin-4-yl)-pyrido[3,4-d]-pyrimidin-4-yl]piperazine]: the IC50 lay within 1000 to 10000 nM.

For `COc1cncc2nc(-c3ccnc(Nc4ccc(C(F)(F)F)cn4)c3)nc(N3CCNCC3)c12` [Example 368, [4-(5-Methoxy-4-piperazin-1-yl-pyrido[3,4-d]pyrimidin-2-yl)-pyridin-2-yl]-(5-trifluoromethyl-pyridin-2-yl)-amine], the IC50 is < 100 nM. Under `COc1cccc(Nc2cc(-c3nc(N4CCNCC4)c4c(C5CC5)cncc4n3)ccn2)c1C` [Example 591, [4-(5-Cyclopropyl-4-piperazin-1-yl-pyrido[3,4-d]pyrimidin-2-yl)-pyridin-2-yl]-(3-methoxy-2-methyl-phenyl)-amine] stands < 100 nM. The same measure for `COc1cncc2nc(-c3ccnc(NC(=O)Cc4cccnc4)c3)nc(N3CCNCC3)c12` [Example 399, N-[4-(5-Methoxy-4-piperazin-1-yl-pyrido[3,4-d]pyrimidin-2-yl)-pyridin-2-yl]-2-pyridin-3-yl-acetamide]: < 100 nM; for `COc1cncc2nc(-c3ccncc3)nc(N3C[C@@H](C)N[C@@H](C)C3)c12` [Example 51, 1-[5-methoxy-2-(pyridin-4-yl)-pyrido[3,4-d]-pyrimidin-4-yl]-3,5-cis-dimethylpiperazine]: 1000 to 10000 nM; for `FC(F)(F)c1cnnc(Nc2cc(-c3nc(N4CCNCC4)c4c(C5CC5)cncc4n3)ccn2)c1` [Example 565, [4-(5-Cyclopropyl-4-piperazin-1-yl-pyrido[3,4-d]pyrimidin-2-yl)-pyridin-2-yl]-(5-trifluoromethyl-pyridazin-3-yl)-amine]: < 100 nM. The same measure for `CP(C)(=O)c1ccc(Nc2cc(-c3nc(N4CCNCC4)c4c(C5CC5)cncc4n3)ccn2)cc1` [Example 549, [4-(5-Cyclopropyl-4-piperazin-1-yl-pyrido[3,4-d]pyrimidin-2-yl)-pyridin-2-yl]-[4-(dimethyl-phosphinoyl)-phenyl]-amine]: < 100 nM; for `Fc1cnc(Nc2cc(-c3nc(N4CCNCC4)c4c(C5CC5)cnc(Cl)c4n3)ccn2)c(F)c1` [Example 2148, [4-(8-Chloro-5-cyclopropyl-4-piperazin-1-yl-pyrido[3,4-d]pyrimidin-2-yl)-pyridin-2-yl]-(3,5-difluoro-pyridin-2-yl)-amine]: < 100 nM. As for `COc1cncc2nc(-c3ccnc(Nc4ccccc4)c3)nc(N3CCN[C@@H](CF)C3)c12` [Example 233, {4-[4-((R)-3-Fluoromethyl-piperazin-1-yl)-5-methoxy-pyrido[3,4-d]pyrimidin-2-yl]-pyridin-2-yl}-phenyl-amine], the IC50 lay in the range of 100 to 1000 nM. The same measure for `Fc1ccccc1Nc1cc(-c2nc(N3CCNCC3)c3c(C4CC4)cncc3n2)ccn1` [Example 263, [4-(5-Cyclopropyl-4-piperazin-1-yl-pyrido[3,4-d]pyrimidin-2-yl)-pyridin-2-yl]-(2-fluoro-phenyl)-amine]: < 100 nM; for `COCC(C)(C)c1cc2c(-c3nc(N4CCNCC4)c4c(C5CC5)cncc4n3)ccnc2[nH]1` [Example 2108, 5-Cyclopropyl-2-[2-(2-methoxy-1,1-dimethyl-ethyl)-1H-pyrrolo[2,3-b]pyridin-4-yl]-4-piperazin-1-yl-pyrido[3,4-d]pyrimidine]: < 100 nM; for `FC(F)c1cc2c(-c3nc(N4CCNCC4)c4c(C5CC5)cncc4n3)ccnc2[nH]1` [Example 2106, 5-Cyclopropyl-2-(2-difluoromethyl-1H-pyrrolo[2,3-b]pyridin-4-yl)-4-piperazin-1-yl-pyrido[3,4-d]pyrimidine]: < 100 nM. With `CN(C[C@@H](N)Cc1ccccc1)c1nc(-c2ccncc2)nc2cnccc12` [Example 26, N-[(2S)-2-amino-3-phenylpropyl]-N-methyl-2-(pyridin-4-yl)pyrido[3,4-d]-pyrimidin-4-amine], the IC50 lay in the range of 10000 to 40000 nM. The same measure for `Cc1cc2c(-c3nc(N4CCNCC4)c4c(C5CC5)cnc(Cl)c4n3)ccnc2[nH]1` [Example 2092, 8-Chloro-5-cyclopropyl-2-(2-methyl-1H-pyrrolo[2,3-b]pyridin-4-yl)-4-piperazin-1-yl-pyrido[3,4-d]pyrimidine]: < 100 nM; for `c1ccc(C2(c3cc4c(-c5nc(N6CCNCC6)c6c(C7CC7)cncc6n5)ccnc4[nH]3)CC2)cc1` [Example 1240, 5-Cyclopropyl-2-[2-(1-phenyl-cyclopropyl)-1H-pyrrolo[2,3-b]pyridin-4-yl]-4-piperazin-1-yl-pyrido[3,4-d]pyrimidine]: < 100 nM; for `c1ccc(CC2CN(c3nc(N[C@@H]4CCNC4)c4ccncc4n3)CCO2)cc1` (stereo partly drawn) [Example 1001, [2-(2-Benzyl-morpholin-4-yl)-pyrido[3,4-d]pyrimidin-4-yl]-(R)-pyrrolidin-3-yl-amine]: 1000 to 10000 nM.

`N#CC[C@H]1CN(c2nc(N3CCOCC3)nc3cncc(C4CC4)c23)CCN1` [Example 1018, [(S)-4-(5-Cyclopropyl-2-morpholin-4-yl-pyrido[3,4-d]pyrimidin-4-yl)-piperazin-2-yl]-acetonitrile]: the IC50 was < 100 nM. The same measure for `Cc1ccc(F)c(Nc2cc(-c3nc(N4CCNCC4)c4c(C5CC5)cncc4n3)ccn2)c1F` [Example 557, [4-(5-Cyclopropyl-4-piperazin-1-yl-pyrido[3,4-d]pyrimidin-2-yl)-pyridin-2-yl]-(2,6-difluoro-3-methyl-phenyl)-amine]: < 100 nM.
